Laboratory results taken from patent publication US4835162A (priority 1987, dated 1989).
“Also recorded” adds a separate entry of the source. Where two headings read alike, the source gives them in different places.

Tests used:
[1] = test system: rats; conditions: rat, in vivo, iv
[2] = test system: rats; conditions: rat, in vivo, ip, 3 mg/kg
[3] = test system: rats; conditions: rat, in vivo
[4] = test system: rats; conditions: rat, in vivo; remark: listed apart in the source
[5] = test system: rats; conditions: rat, in vivo; remark: listed apart in the source
[6] = test system: rats; set-up: species or system Sprague-Dawley male rats; Blockade of (nicotine-induced prostration) EC50: unit not given here; conditions: rat, in vivo
[7] = target: nicotinic receptors (rat brain membranes); conditions: read-out: 3H-MCC Binding IC50
[8] = target: nicotinic receptors (rat brain membranes); format: binding; conditions: read-out: 3H-Nicotine Binding IC50
[9] = test system: rats; assay: animal or person; conditions: Rattus norvegicus, iv, read-out: Antagonistic dose needed to completely block elevation in systolic blood pressure
[10] = target: nicotinic receptors (rat brain membranes); format: binding; conditions: pH 7; read-out: [3H]-MCC IC50
[11] = target: nicotinic receptors (rat brain membranes); format: binding; conditions: for IC50: pH 7, read-out: [3H]-nicotine IC50

CN1CCCC1c1cccnc1 (single isomer, unassigned; (-)) [(-)-nicotine]
increase in systolic blood pressure by nicotine [1]: 25% | Mortality [2]: 8/10 | Prostration EC50 [3]: 2 | agonist or inactive on prostration, in words [3]: agonists | duration of prostration [3]: 2 to 4 min | onset of prostration response [3]: 1 to 3 s | respiratory effect, in words [3]: deep diaphragmatic breathing and a decreased respiratory rate | signs after nicotine, in words [4]: prostration followed by tremors, fasciculations, cyanosis and labored breathing, and myoclonic seizures | Seizures ([4]; ip, 1.5 mg/kg): 10/10 | dose producing effect: prostration, in words [5]: prostration of all four limbs | times more effective than (+)-enantiomer of nicotine (prostration) [5]: 20 times | times more potent than N'-ethyl analogue (prostration) [5]: 10 times | times more potent than N'-propyl analogue (prostration) [5]: 40 times | times more potent than nicotonium analogue (prostration) [5]: 50 times | volume of nicotine solution required to produce prostration [5]: 1-2 μl of a 10^-3 M solution

CN(C)c1cccnc1 [3-dimethylaminopyridine]
agonist or inactive on prostration, in words [3]: agonists

Nc1c2c(nc3ccccc13)CCCC2 [9-aminotetrahydroacridine, reference compound]
Blockade of (nicotine-induced prostration) EC50 [6]: 200

CC(=O)OCCN(C)C [DMAE acetate]
IC50 ([7]; pH 7.5): 50 µM | Prostration EC50 [3]: > 1000 | IC50 ([8]; pH 7.5): 50 µM

CN(C)CCOC(=O)c1ccccc1 [DMAE benzoate, dimethylaminoethyl benzoate]
% Antagonism (seizures) [4]: 45% | Seizures [4]: 5/9 | ED100 [9]: 10 ± 25 mg/kg | Blockade of (nicotine-induced prostration) EC50 [6]: 100

CN(C)CCOC(N)=O [DMAE carbamate]
IC50 ([7]; pH 7.5): 10 µM | IC50 [10]: 10 µM | Prostration EC50 [3]: 400 | behavioral effect, in words [3]: only a similar effect | IC50 ([8]; pH 7.5): 10 µM | IC50 [11]: 10 µM

CN(C)CCOC(=O)C1CCCCC1 [DMAE cyclohexylcarboxylate, dimethylaminoethyl cyclohexylcarboxylate]
IC50 [7]: 4 µM | IC50 [8]: 2 µM | % Antagonism (seizures) [4]: 50% | Seizures [4]: 4/8 | seizures, in words [4]: about half of the rats exhibited seizures | Blockade of (nicotine-induced prostration) EC50 [6]: 100

CNC(=O)OCCN(C)C [DMAE methylcarbamate, dimethylaminoethylmethylcarbamate]
IC50 ([7]; pH 7.5): 0.8 µM | IC50 [10]: 0.8 µM | Prostration EC50 [3]: 300 | behavioral effect, in words [3]: moderate weakness in the hindlimbs and head | IC50 ([8]; pH 7.5): 0.5 µM | IC50 [11]: 0.5 µM

CN(C)CCOC(=O)c1cccnc1 [DMAE nicotinate]
IC50 [7]: 0.2 µM | IC50 [8]: 0.2 µM | Blockade of (nicotine-induced prostration) EC50 [6]: 50 | blockade of nicotine-induced prostration / antagonism, in words [6]: next in effectiveness and of comparable activity; also recorded: antagonistic to the nicotine-induced prostration

CN(C)CCOC(=O)Nc1ccccc1 [DMAE phenylcarbamate]
IC50 [7]: 100 µM | IC50 [8]: 100 µM

CN(C)CCOC(=S)Nc1ccccc1 [DMAE phenylthiocarbamate]
IC50 [7]: 20 µM | IC50 [8]: 70 µM

CN(C)CCOC(=O)CCC(=O)OCCN(C)C [DMAE succinate]
IC50 ([7]; pH 7.5): 60 µM | Prostration EC50 [3]: 1000 | IC50 ([8]; pH 7.5): 50 µM

CNC(=O)OCCCN(C)C [DMAP methylcarbamate]
IC50 ([7]; pH 7.5): 0.05 µM | Prostration EC50 [3]: 100 | IC50 ([8]; pH 7.5): 0.2 µM

CCN1CCCC1c1cccnc1 (stereo not drawn) [N'--ethyl nornicotine, reference compound]
IC50 ([7]; pH 7.5): 0.1 µM | IC50 [10]: 0.1 µM | Prostration EC50 [3]: 20 | IC50 ([8]; pH 7.5): 0.03 µM | decrease in affinity relative to nicotine [11]: 3 fold | IC50 [11]: 0.03 µM

CCCN1CCCC1c1cccnc1 (stereo not drawn) [N'--propyl nornicotine, reference compound]
IC50 ([7]; pH 7.5): 1 µM | IC50 [10]: 1 µM | Prostration EC50 [3]: 80 | IC50 ([8]; pH 7.5): 0.6 µM | decrease in affinity relative to nicotine [11]: 200 fold | IC50 [11]: 0.6 µM

CNC(=O)OC1CCN(Cc2ccccc2)CC1 [N--benzyl-4-piperdyl methylcarbamate]
IC50 [7]: > 100 µM | IC50 [8]: > 100 µM

CN1CCCC(OC(=O)c2ccccc2)C1 (stereo not drawn) [N--methyl-3-piperdyl benzoate]
IC50 [7]: 20 µM | IC50 [8]: 30 µM | Blockade of (nicotine-induced prostration) EC50 [6]: 300

COc1ccc(CC2c3cc(OC)c(OC)cc3CCN2C)cc1OC (stereo not drawn) [N--methyltetrahydro papavarine, reference compound]
IC50 [7]: 80 µM | IC50 [8]: 70 µM
